Measurements reported in publication PMC11938010, “Positive Charge in an Antimalarial Compound Unlocks Broad-Spectrum Antibacterial Activity” (JACS Au, 2025).
Values after ≈ are worked out from the molar mass of the structure shown. Read-outs that look alike come from different tables or passages of the source.

What was measured:
Escherichia coli ∆tolC = test: microbe, parasite or virus in culture; type: cell-based; conditions: Escherichia coli; for inhibition at 50 µM: read-out: Ec∆tolC inh. at 50 µM (%)
[1] = system: Staphylococcus aureus ssp. Aureus; test: In vitro antibacterial activity (MIC), S. aureus; type: cell-based; conditions: Staphylococcus aureus, read-out: Sa MIC95
[2] = system: Streptococcus pneumoniae (DSM20566); test: In vitro antibacterial activity (MIC), S. pneumoniae; type: cell-based; conditions: Streptococcus pneumoniae, DSM20566, read-out: Sp MIC95
Solubility in 7H9 medium = type: physicochemical; conditions: M. tuberculosis growth medium (7H9)
[3] = system: Plasmodium falciparum NF54; test: P. falciparum in vitro drug sensitivity assay on asexual blood stage parasites ([3H]-hypoxanthine incorporation); type: cell-based; conditions: read-out: PfNF54 IC50
[4] = system: Mycobacterium tuberculosis (Mtb) strain H37Rv; test: microbe, parasite or virus in culture; type: cell-based; conditions: 168 h, 7 days, footnote b: not active at maximum solubility, read-out: MtbH37Rv MIC90
in vitro = conditions: human, HepG2 CC50, 48 h, MTT
Acinetobacter baumannii = test: In vitro antibacterial activity (growth inhibition, OD600), A. baumannii; type: cell-based; conditions: for MIC: read-out: Ab MIC95
[5] = system: Pseudomonas aeruginosa PA14; test: In vitro antibacterial activity (growth inhibition, OD600), P. aeruginosa; type: cell-based; conditions: PA14, 50 μM compound, Table 1 and main text, read-out: PA14 inh. at 50 μM
E. coli K12 = test: In vitro antibacterial activity (growth inhibition, OD600), E. coli wild-type; type: cell-based; conditions: Escherichia coli
[6] = Table S2, with standard deviation
[7] = Plasmodium falciparum, NF54, Table 1 and main text
[8] = 50 μM compound, Table 1 and main text, read-out: Ab inh. at 50 μM
[9] = K12, 50 μM compound, Table 1 and main text, read-out: EcK12 inh. at 50 μM
[10] = Table S1, printed inside the inhibition column, with standard deviation, unit from Table 1 footnote
[11] = printed inside the Ab inhibition column, Table 1 and main text
[12] = K12, read-out: EcK12 inh. at 50 μM, 50 μM compound, Table 1 and main text
[13] = 50 µM, Table S1, with standard deviation, read-out: Ab inh. at 50 µM (%)

| SMILES | MIC (Escherichia coli ∆tolC; read-out: EcΔtolC MIC95) [µM] | MIC ([1]; Table 1 and main text) [µM] | MIC [1, 6] [µM] | MIC ([2]; Table 1 and main text) [µM] | MIC [2, 6] [µM] | 7h9 media Sol. (Solubility in 7H9 medium) [µM] | IC50 [3, 7] [nM] | MIC90 [4] [µM] | CC50 (in vitro) [nM] | MIC (Escherichia coli ∆tolC; read-out: Ec∆tolC MIC95 (µM)) [µM] | inhibition at 50 µM (Acinetobacter baumannii; [8]) [%] | inhibition at 50 µM [5] [%] | inhibition at 50 µM (E. coli K12; [9]) [%] | also measured |
| --- | --- | --- | --- | --- | --- | --- | --- | --- | --- | --- | --- | --- | --- | --- |
| O=C(Nc1cccc(F)c1)c1cc(-c2cc(Cl)ccc2O)[nH]n1 [Compound 1b] | > 50 | > 50 | > 50 | > 50 | > 50 | < 8 | 700 |  |  |  |  |  |  |  |
| O=C(Nc1cccc([N+](=O)[O-])c1)c1cc(-c2cc(Cl)ccc2O)[nH]n1 [Compound 1c] | > 50 | > 50 | > 50 | > 50 | > 50 | 32 | 510 | > 32 |  |  |  |  |  |  |
| O=C(Nc1cccc(CN2CCOCC2)c1)c1cc(-c2cc(Cl)ccc2O)[nH]n1 [Compound 2] | > 50 | > 50 | > 50 | > 50 | > 50 | 16 | 1100 | > 16 | ~50000 |  |  |  |  | inhibition at 50 µM (Escherichia coli ∆tolC): 24 ± 12% |
| CC(C)(C)OC(=O)NCc1ccc(NC(=O)c2cc(-c3cc(Cl)ccc3O)[nH]n2)cc1 [Compound 8B] | > 50 | > 50 | > 50 | > 50 | > 50 | < 8 | 1700 |  | > 50000 |  |  |  |  | inhibition at 50 µM (Escherichia coli ∆tolC): < 10% |
| O=C(Nc1ccc(CNC2=NCCN2)cc1)c1cc(-c2cc(Cl)ccc2O)[nH]n1 [Compound 8C] | 21.5 (≈ 8.83 µg/mL) | 49 (≈ 20.1 µg/mL) | 49 ± 1 (≈ 20.1 µg/mL) | > 50 | > 50 |  | 670 | > 64 | > 50000 | 21.5 (≈ 8.83 µg/mL) | 12 | 10 | < 10 |  |
| N=C(N)NCc1ccc(NC(=O)c2cc(-c3cc(Cl)ccc3O)[nH]n2)cc1 [Compound 8G, 5-(5-Chloro-2-hydroxyphenyl)-N-(4-(guanidinomethyl)phenyl)-1H-pyrazole-3-carboxamide] | 47.5 (≈ 18.3 µg/mL) | 22 (≈ 8.47 µg/mL) | 22 ± 1 (≈ 8.47 µg/mL) | > 50 | > 50 |  | 420 | > 64 | > 50000 | 47.5 (≈ 18.3 µg/mL) | 19.9 | 41 | 29 |  |
| NCc1cc(NC(=O)c2cc(-c3cc(Cl)ccc3O)[nH]n2)cc(C(F)(F)F)c1 [Compound 9A, N-(3-(Aminomethyl)-5-(trifluoromethyl)phenyl)-5-(5-chloro-2-hydroxyphenyl)-1H-pyrazole-3-carboxamide] | 8 (≈ 3.29 µg/mL) | 12.1 (≈ 4.97 µg/mL) | 12.1 ± 0.6 (≈ 4.97 µg/mL) | 11 (≈ 4.52 µg/mL) | 10.8 ± 2.5 (≈ 4.44 µg/mL) |  | 82 | 32 (≈ 13.1 µg/mL) | 7000 | 8 ± 3 (≈ 3.29 µg/mL) |  | < 10 | < 10 | MIC (Acinetobacter baumannii; [10]): 48.9 ± 0.5 µM (≈ 20.1 µg/mL); MIC (Acinetobacter baumannii; [11]): 49 µM (≈ 20.1 µg/mL) |
| O=C(Nc1cc(CNC2=NCCN2)cc(C(F)(F)F)c1)c1cc(-c2cc(Cl)ccc2O)[nH]n1 [Compound 9C, 5-(5-Chloro-2-hydroxyphenyl)-N-(3-(((4,5-dihydro-1H-imidazol-2-yl)amino)methyl)-5-(trifluoromethyl)phenyl)-1H-pyrazole-3-carboxamide] | 7 (≈ 3.35 µg/mL) | 9 (≈ 4.31 µg/mL) | 9 ± 2 (≈ 4.31 µg/mL) | 15 (≈ 7.18 µg/mL) | 15 ± 4 (≈ 7.18 µg/mL) |  | 517 | 16 (≈ 7.66 µg/mL) | > 50000 | 7 ± 1 (≈ 3.35 µg/mL) | 47 | 18 |  | inhibition at 50 µM (E. coli K12; K12, 50 µM, Table S1, with standard deviation, read-out: EcK12 inh. at 50 µM (%)): 84 ± 2%; inhibition at 50 µM (E. coli K12; [12]): < 10% |
| N=C(N)NCc1cc(NC(=O)c2cc(-c3cc(Cl)ccc3O)[nH]n2)cc(C(F)(F)F)c1 [Compound 9G] | 5 (≈ 2.26 µg/mL) | 8 (≈ 3.62 µg/mL) | 8 ± 3 (≈ 3.62 µg/mL) | > 50 | > 50 |  | 78 | 32 (≈ 14.5 µg/mL) | > 50000 | 5 ± 2 (≈ 2.26 µg/mL) | 59 | 50 |  | MIC (E. coli K12; K12, Table S1, printed inside the inhibition column, with standard deviation, unit from Table 1 footnote, read-out: EcK12 MIC95): 46 ± 2 µM (≈ 20.8 µg/mL) |
| NCc1ccc(NC(=O)c2cc(-c3cc(Cl)ccc3O)[nH]n2)cc1C(F)(F)F [Compound 10A] | 22.9 (≈ 9.41 µg/mL) | 29 (≈ 11.9 µg/mL) | 29 ± 3 (≈ 11.9 µg/mL) | 23 (≈ 9.45 µg/mL) | 23 ± 3 (≈ 9.45 µg/mL) |  | 150 | 64 (≈ 26.3 µg/mL) | 13000 | 22.9 ± 0.1 (≈ 9.41 µg/mL) | 86 | < 10 | 61 |  |
| O=C(Nc1ccc(CNC2=NCCN2)c(C(F)(F)F)c1)c1cc(-c2cc(Cl)ccc2O)[nH]n1 [Compound 10C, 5-(5-Chloro-2-hydroxyphenyl)-N-(4-(((4,5-dihydro-1H-imidazol-2-yl)amino)methyl)-3-(trifluoromethyl)phenyl)-1H-pyrazole-3-carboxamide] | 5.5 (≈ 2.63 µg/mL) | 8 (≈ 3.83 µg/mL) | 8 ± 2 (≈ 3.83 µg/mL) | 14 (≈ 6.7 µg/mL) | 14 ± 2 (≈ 6.7 µg/mL) |  | 404 | 16 (≈ 7.66 µg/mL) | > 50000 | 5.5 ± 0.8 (≈ 2.63 µg/mL) | 47 | 29 |  | inhibition at 50 µM (Acinetobacter baumannii; [13]): 49.6 ± 0.9%; inhibition at 50 µM (E. coli K12; [12]): 77% |
| CC(C)(C)OC(=O)N1CCN=C1NCc1ccc(NC(=O)c2cc(-c3cc(Cl)ccc3O)[nH]n2)cc1C(F)(F)F [Compound 10D, tert-Butyl 2-((4-(5-(5-chloro-2-hydroxyphenyl)-1H-pyrazole-3-carboxamido)-2-(trifluoromethyl)benzyl)amino)-4,5-dihydro-1H-imidazole-1-carboxylate] | 18 (≈ 10.4 µg/mL) | 11.6 (≈ 6.72 µg/mL) | 11.6 ± 0.2 (≈ 6.72 µg/mL) | > 50 | > 50 |  | 140 | 16 (≈ 9.26 µg/mL) | 11000 | 18 ± 6 (≈ 10.4 µg/mL) | < 10 | < 10 | 17 |  |
| O=C(Nc1cc(N2CCNCC2)cc(C(F)(F)F)c1)c1cc(-c2cc(Cl)ccc2O)[nH]n1 [Compound 11A] | 7 (≈ 3.26 µg/mL) | 6 (≈ 2.8 µg/mL) | 6 ± 2 (≈ 2.8 µg/mL) | 5 (≈ 2.33 µg/mL) | 5 ± 1 (≈ 2.33 µg/mL) |  | ≤ 60 | 32 (≈ 14.9 µg/mL) | 9000 | 7 ± 2 (≈ 3.26 µg/mL) |  | < 10 | 72 | MIC (Acinetobacter baumannii; [10]): 22 ± 3 µM (≈ 10.2 µg/mL); MIC (Acinetobacter baumannii; [11]): 22 µM (≈ 10.2 µg/mL); IC50 ([3]; Table 1 and main text): 50 nM |
| CC(C)(C)OC(=O)N1CCN(c2cc(NC(=O)c3cc(-c4cc(Cl)ccc4O)[nH]n3)cc(C(F)(F)F)c2)CC1 [Compound 11B] | > 50 | > 50 | > 50 | > 50 | > 50 | < 8 | 130 |  | 4000 |  |  |  |  | inhibition at 50 µM (Escherichia coli ∆tolC): 18 ± 4%; inhibition at 50 µM (Acinetobacter baumannii; [13]): < 10% |
| O=C(Nc1cc(N2CCN(C3=NCCN3)CC2)cc(C(F)(F)F)c1)c1cc(-c2cc(Cl)ccc2O)[nH]n1 [Compound 11C, 5-(5-Chloro-2-hydroxyphenyl)-N-(3-(4-(4,5-dihydro-1H-imidazol-2-yl)piperazin-1-yl)-5-(trifluoromethyl)phenyl)-1H-pyrazole-3-carboxamide] | 7 (≈ 3.74 µg/mL) | 8 (≈ 4.27 µg/mL) | 8 ± 2 (≈ 4.27 µg/mL) | 7 (≈ 3.74 µg/mL) | 7 ± 2 (≈ 3.74 µg/mL) |  | 590 | 8 (≈ 4.27 µg/mL) | > 50000 | 7 ± 2 (≈ 3.74 µg/mL) | 53 | < 10 | 63 |  |
| O=C(Nc1ccc(N2CCNCC2)c(C(F)(F)F)c1)c1cc(-c2cc(Cl)ccc2O)[nH]n1 [Compound 12A, 5-(5-Chloro-2-hydroxyphenyl)-N-(4-(piperazin-1-yl)-3-(trifluoromethyl)phenyl)-1H-pyrazole-3-carboxamide] | 18.9 (≈ 8.8 µg/mL) | 14 (≈ 6.52 µg/mL) | 14 ± 2 (≈ 6.52 µg/mL) | 8 (≈ 3.73 µg/mL) | 8 ± 2 (≈ 3.73 µg/mL) |  | ≤ 60 | 16 (≈ 7.45 µg/mL) | 6000 | 18.9 ± 0.5 (≈ 8.8 µg/mL) | 29 | < 10 | 12 | IC50 ([3]; Table 1 and main text): 60 nM |
| CC(C)(C)OC(=O)N1CCN(c2ccc(NC(=O)c3cc(-c4cc(Cl)ccc4O)[nH]n3)cc2C(F)(F)F)CC1 [Compound 12B, tert-Butyl 4-(4-(5-(5-chloro-2-hydroxyphenyl)-1H-pyrazole-3-carboxamido)-2-(trifluoromethyl)phenyl)piperazine-1-carboxylate] | > 50 | > 50 | > 50 | > 50 | > 50 | < 8 | 560 |  | > 50000 |  |  |  |  | inhibition at 50 µM (Escherichia coli ∆tolC): < 10%; inhibition at 50 µM (Acinetobacter baumannii; [13]): < 10% |
